From the supplement of paper PMC10307832

Key:
Assay in all cases: relative viability (nuclei count vs DMSO), 5 days (fraction); higher = more cells survive
[1] = compound: COC1=CC=C(C=C1)CN2C=CC3=C2C=C(C=C3)C(=O)NO + N=C(N)NC(=N)NCCc1ccccc1 [Phenformin] (partner 250 µM)
How it was run: (§1)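 Lung cancer cell lines were pin-tool dosed in 1536-well plates on the day after seeding, with either a lone drug or a fixed anchor-drug dose plus five library-drug doses (not always all listed) in √10 steps. Nuclei were counted on 4× images after 5 days. Relative viability is the ratio of treated-well to vehicle-well nuclei counts, with each value a median of duplicate plates.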

Veliparib + Palbociclib = compound: C[C@]1(c2nc3c(C(N)=O)cccc3[nH]2)CCCN1 [Veliparib] + CC(=O)c1c(C)c2cnc(Nc3ccc(N4CCNCC4)cn3)nc2n(C2CCCC2)c1=O [Palbociclib] (partner 0.5 µM)
How it was run: as §1

Veliparib + OSI-027 = compound: C[C@]1(c2nc3c(C(N)=O)cccc3[nH]2)CCCN1 [Veliparib] + COc1cccc2cc(-c3nc([C@H]4CC[C@H](C(=O)O)CC4)n4ncnc(N)c34)[nH]c12 [OSI-027] (partner 0.5 µM)
How it was run: as §1

Veliparib + Luminespib = compound: C[C@]1(c2nc3c(C(N)=O)cccc3[nH]2)CCCN1 [Veliparib] + CCNC(=O)c1noc(-c2cc(C(C)C)c(O)cc2O)c1-c1ccc(CN2CCOCC2)cc1 [Luminespib] (partner 0.01 µM)
How it was run: as §1

Cell Line: SW 1573
- relative viability ([1]; first compound 0.253 µM): 0.368
- relative viability ([1]; first compound 0.8 µM): 0.426
- relative viability ([1]; first compound 2.53 µM): 0.379
- relative viability ([1]; first compound 8 µM): 0.331
- relative viability (Veliparib + Palbociclib; first compound 0.06325 µM): 0.337
- relative viability (Veliparib + Palbociclib; first compound 0.2 µM): 0.431
- relative viability (Veliparib + Palbociclib; first compound 0.6325 µM): 0.382
- relative viability (Veliparib + Palbociclib; first compound 2 µM): 0.445
- relative viability (Veliparib + OSI-027; first compound 0.06325 µM): 0.558
- relative viability (Veliparib + OSI-027; first compound 0.2 µM): 0.597
- relative viability (Veliparib + OSI-027; first compound 0.6325 µM): 0.521
- relative viability (Veliparib + OSI-027; first compound 2 µM): 0.675
- relative viability (Veliparib + Luminespib; first compound 0.02 µM): 0.169
- relative viability (Veliparib + Luminespib; first compound 0.06325 µM): 0.204
- relative viability (Veliparib + Luminespib; first compound 0.2 µM): 0.169
- relative viability (Veliparib + Luminespib; first compound 0.6325 µM): 0.254
- relative viability (Veliparib + Luminespib; first compound 2 µM): 0.214
